Our source for the Ki values is patent US10533010B2, “Substituted indole Mcl-1 inhibitors” (Vanderbilt University, priority 2014, dated 2020).

Molecules are shown by their SMILES.

The test has as its target recombinant Mcl-1 (residues 172-327) (Homo sapiens (Human), UniProt Q07820). The experiment in a line: Fluorescence polarization anisotropy competition assay (FITC-Bak or FITC-Bim BH3 peptide) with Mcl-1. In kind it is binding. As to conditions: Table 2; Ki bins given in nM; FITC-Bak or FITC-Bim peptide competition; Ki converted from IC50; read-out: Ki for Inhibition of Mcl-1. A general note: Polarisation of emitted light reports the rotation of a fluorescent probe.

Chain of recombinant Mcl-1 (residues 172-327) (Q07820 172-327): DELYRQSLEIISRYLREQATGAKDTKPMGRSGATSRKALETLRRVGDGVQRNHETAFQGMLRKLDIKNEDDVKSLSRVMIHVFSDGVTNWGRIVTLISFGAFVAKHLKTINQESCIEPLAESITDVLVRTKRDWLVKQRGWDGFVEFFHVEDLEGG

In general, Ki refers to the dissociation constant of the complex between target and ligand, obtained from inhibition or displacement. On to `Cc1nn(C)c(C)c1-c1cccc2c(CCCOc3cccc4ccccc34)c(C(=O)Nc3cccc(C(=O)O)c3)[nH]c12` [I-193, 3-(3-(3-(naphthalen-1-yloxy)propyl)-7-(1,3,5-trimethyl-1H-pyrazol-4-yl)-1H-indole-2-carboxamido)benzoic acid], for which the Ki is less than 50 nM.

As to `Cc1nn(C)c(C)c1-c1cccc2c(CCCOc3cccc4ccccc34)c(C(=O)Nc3cncc(C(=O)O)c3)[nH]c12` [I-194, 5-(3-(3-(naphthalen-1-yloxy)propyl)-7-(1,3,5-trimethyl-1H-pyrazol-4-yl)-1H-indole-2-carboxamido)nicotinic acid], the Ki lay in the range of 51 to 100 nM.

As for `Cc1nn(C)c(C)c1-c1cccc2c(CCCOc3cccc4ccccc34)c(C(=O)N(C)c3cccc(C(=O)O)c3)[nH]c12` [I-195, 3-(N-methyl-3-(3-(naphthalen-1-yloxy)propyl)-7-(1,3,5-trimethyl-1H-pyrazol-4-yl)-1H-indole-2-carboxamido)benzoic acid], the inhibition constant Ki is less than 50 nM.

In the case of `Cc1cc(OCCCc2c(C(=O)Nc3cccc(C(=O)O)c3)[nH]c3c(-c4c(C)nn(C)c4C)cccc23)cc(C)c1Cl` [I-196, 3-(3-(3-(4-chloro-3,5-dimethylphenoxy)propyl)-7-(1,3,5-trimethyl-1H-pyrazol-4-yl)-1H-indole-2-carboxamido)benzoic acid], the Ki was less than 50 nM.

For the compound `Cc1cc(OCCCc2c(C(=O)N(C)c3cccc(C(=O)O)c3)[nH]c3c(-c4c(C)nn(C)c4C)cccc23)cc(C)c1Cl` [I-197, 3-(3-(3-(4-chloro-3,5-dimethylphenoxy)propyl)-N-methyl-7-(1,3,5-trimethyl-1H-pyrazol-4-yl)-1H-indole-2-carboxamido)benzoic acid], the Ki was less than 50 nM.

Regarding `Cc1cc(OCCCc2c3n(c4c(-c5c(C)nn(C)c5C)c(Cl)ccc24)CCN(c2cncc(C(=O)O)c2)C3=O)cc(C)c1Cl` [I-198, 5-(7-chloro-10-(3-(4-chloro-3,5-dimethylphenoxy)propyl)-1-oxo-6-(1,3,5-trimethyl-1H-pyrazol-4-yl)-3,4-dihydropyrazino[1,2-a]indol-2(1H)-yl)nicotinic acid], the Ki was less than 50 nM.

Consider `Cc1cc(OCCCc2c(C(=O)N3CCc4c(C(=O)O)cccc43)[nH]c3c(-c4c(C)nn(C)c4C)cccc23)cc(C)c1Cl` [I-202, 1-(3-(3-(4-chloro-3,5-dimethylphenoxy)propyl)-7-(1,3,5-trimethyl-1H-pyrazol-4-yl)-1H-indole-2-carbonyl)indoline-4-carboxylic acid], for which the Ki lay within 51 to 100 nM.

In the case of `Cc1cc(OCCCc2c(C(=O)N3CCC(CC(=O)O)CC3)[nH]c3c(-c4c(C)nn(C)c4C)cccc23)cc(C)c1Cl` [I-204, 2-(1-(3-(3-(4-chloro-3,5-dimethylphenoxy)propyl)-7-(1,3,5-trimethyl-1H-pyrazol-4-yl)-1H-indole-2-carbonyl)piperidin-4-yl)acetic acid], the Ki fell in the range of 51 to 100 nM.

Turning to `Cc1cc(OCCCc2c(C(=O)Nc3ccc(CC(=O)O)cc3)[nH]c3c(-c4c(C)nn(C)c4C)cccc23)cc(C)c1Cl` [I-205, 2-(4-(3-(3-(4-chloro-3,5-dimethylphenoxy)propyl)-7-(1,3,5-trimethyl-1H-pyrazol-4-yl)-1H-indole-2-carboxamido)phenyl)acetic acid], the Ki is less than 50 nM.

On to `Cc1cc(OCCCc2c(C(=O)Nc3cccc(CC(=O)O)c3)[nH]c3c(-c4c(C)nn(C)c4C)cccc23)cc(C)c1Cl` [I-206, 2-(3-(3-(3-(4-chloro-3,5-dimethylphenoxy)propyl)-7-(1,3,5-trimethyl-1H-pyrazol-4-yl)-1H-indole-2-carboxamido)phenyl)acetic acid], for which the Ki is less than 50 nM.

With `Cc1cc(OCCCc2c(C(=O)Nc3cc(C(=O)O)cc(N4CCN(C)CC4)c3)[nH]c3c(-c4c(C)nn(C)c4C)c(Cl)ccc23)cc(C)c1Cl` [I-207, 3-(6-chloro-3-(3-(4-chloro-3,5-dimethylphenoxy)propyl)-7-(1,3,5-trimethyl-1H-pyrazol-4-yl)-1H-indole-2-carboxamido)-5-(4-methylpiperazin-1-yl)benzoic acid], the Ki is less than 50 nM.

Consider `Cc1cc(OCCCc2c(C(=O)Nc3cc(C(=O)O)cc(N4CCOCC4)c3)[nH]c3c(-c4c(C)nn(C)c4C)c(Cl)ccc23)cc(C)c1Cl` [I-208, 3-(6-chloro-3-(3-(4-chloro-3,5-dimethylphenoxy)propyl)-7-(1,3,5-trimethyl-1H-pyrazol-4-yl)-1H-indole-2-carboxamido)-5-morpholinobenzoic acid], for which the inhibition constant (Ki) was less than 50 nM.

As to `Cc1cc(OCCCc2c(C(=O)Nc3cc(NC4CCOCC4)cc(C(=O)O)c3)[nH]c3c(-c4c(C)nn(C)c4C)c(Cl)ccc23)cc(C)c1Cl` [I-209, 3-(6-chloro-3-(3-(4-chloro-3,5-dimethylphenoxy)propyl)-7-(1,3,5-trimethyl-1H-pyrazol-4-yl)-1H-indole-2-carboxamido)-5-((tetrahydro-2H-pyran-4-yl)amino)benzoic acid], the Ki is less than 50 nM.

`Cc1cc(OCCCc2c(C(=O)Nc3cc(C(=O)O)cc(N(C)CCN(C)C)c3)[nH]c3c(-c4c(C)nn(C)c4C)c(Cl)ccc23)cc(C)c1Cl` [I-210, 3-(6-chloro-3-(3-(4-chloro-3,5-dimethylphenoxy)propyl)-7-(1,3,5-trimethyl-1H-pyrazol-4-yl)-1H-indole-2-carboxamido)-5-((2-(dimethylamino)ethyl)(methyl)amino)benzoic acid]: the Ki is less than 50 nM.

Turning to `Cc1cc(OCCCc2c3n(c4c(-c5c(C)nn(C)c5C)c(Cl)ccc24)CCCN(c2cc(C(=O)O)cc(N(C)CCN(C)C)c2)C3=O)cc(C)c1Cl` [I-211, 3-(8-chloro-11-(3-(4-chloro-3,5-dimethylphenoxy)propyl)-1-oxo-7-(1,3,5-trimethyl-1H-pyrazol-4-yl)-4,5-dihydro-1H-[1,4]diazepino[1,2-a]indol-2(3H)-yl)-5-((2-(dimethylamino)ethyl)(methyl)amino)benzoic acid], the Ki was less than 50 nM.

As for `Cc1cc(OCCCc2c3n(c4c(-c5c(C)nn(C)c5C)c(Cl)ccc24)CCN(c2cc(C(=O)O)cc(N4CCOCC4)c2)C3=O)cc(C)c1Cl` [I-213, 3-(7-chloro-10-(3-(4-chloro-3,5-dimethylphenoxy)propyl)-1-oxo-6-(1,3,5-trimethyl-1H-pyrazol-4-yl)-3,4-dihydropyrazino[1,2-a]indol-2(1H)-yl)-5-morpholinobenzoic acid], the Ki is less than 50 nM.

Consider `Cc1cc(OCCCc2c3n(c4c(-c5c(C)nn(C)c5C)c(Cl)ccc24)CCN(c2cc(NC4CCOCC4)cc(C(=O)O)c2)C3=O)cc(C)c1Cl` [I-214, 3-(7-chloro-10-(3-(4-chloro-3,5-dimethylphenoxy)propyl)-1-oxo-6-(1,3,5-trimethyl-1H-pyrazol-4-yl)-3,4-dihydropyrazino[1,2-a]indol-2(1H)-yl)-5-((tetrahydro-2H-pyran-4-yl)amino)benzoic acid], for which the Ki is less than 50 nM.

As to `Cc1cc(OCCCc2c(C(=O)Nc3cc(C(=O)O)cc(N(C)C)c3)[nH]c3c(-c4c(C)nn(C)c4C)c(Cl)ccc23)cc(C)c1Cl` [I-215, 3-(6-chloro-3-(3-(4-chloro-3,5-dimethylphenoxy)propyl)-7-(1,3,5-trimethyl-1H-pyrazol-4-yl)-1H-indole-2-carboxamido)-5-(dimethylamino)benzoic acid], the Ki is less than 50 nM.

In the case of `Cc1cc(OCCCc2c3n(c4c(-c5c(C)nn(C)c5C)c(Cl)ccc24)CCCN(c2cc(C(=O)O)cc(N(C)C)c2)C3=O)cc(C)c1Cl` [I-216, 3-(8-chloro-11-(3-(4-chloro-3,5-dimethylphenoxy)propyl)-1-oxo-7-(1,3,5-trimethyl-1H-pyrazol-4-yl)-4,5-dihydro-1H-[1,4]diazepino[1,2-a]indol-2(3H)-yl)-5-(dimethylamino)benzoic acid], the Ki is less than 50 nM.

`Cc1cc(OCCCc2c(C(=O)Nc3cc(Br)cc(C(=O)O)c3)[nH]c3c(-c4c(C)nn(C)c4C)c(Cl)ccc23)cc(C)c1Cl` [I-217, 3-bromo-5-(6-chloro-3-(3-(4-chloro-3,5-dimethylphenoxy)propyl)-7-(1,3,5-trimethyl-1H-pyrazol-4-yl)-1H-indole-2-carboxamido)benzoic acid]: the Ki was less than 50 nM.

Consider `Cc1cc(OCCCc2c3n(c4c(-c5c(C)nn(C)c5C)c(Cl)ccc24)CCCN(c2cc(Br)cc(C(=O)O)c2)C3=O)cc(C)c1Cl` [I-218, 3-bromo-5-(8-chloro-11-(3-(4-chloro-3,5-dimethylphenoxy)propyl)-1-oxo-7-(1,3,5-trimethyl-1H-pyrazol-4-yl)-4,5-dihydro-1H-[1,4]diazepino[1,2-a]indol-2(3H)-yl)benzoic acid], for which the Ki was less than 50 nM.

Regarding `Cc1cc(OCCCc2c3n(c4c(-c5c(C)nn(C)c5C)c(Cl)ccc24)CCCN(c2cc(C(=O)O)cc(N4CCN(C)CC4)c2)C3=O)cc(C)c1Cl` [I-219, 3-(8-chloro-11-(3-(4-chloro-3,5-dimethylphenoxy)propyl)-1-oxo-7-(1,3,5-trimethyl-1H-pyrazol-4-yl)-4,5-dihydro-1H-[1,4]diazepino[1,2-a]indol-2(3H)-yl)-5-(4-methylpiperazin-1-yl)benzoic acid], the Ki is less than 50 nM.

Regarding `Cc1cc(OCCCc2c3n(c4c(-c5c(C)nn(C)c5C)c(Cl)ccc24)CCCN(c2cc(Cl)cc(C(=O)O)c2)C3=O)cc(C)c1Cl` [I-221, 3-chloro-5-(8-chloro-11-(3-(4-chloro-3,5-dimethylphenoxy)propyl)-1-oxo-7-(1,3,5-trimethyl-1H-pyrazol-4-yl)-4,5-dihydro-1H-[1,4]diazepino[1,2-a]indol-2(3H)-yl)benzoic acid], the Ki was less than 50 nM.

`Cc1cc(OCCCc2c3n(c4c(-c5c(C)nn(C)c5C)c(Cl)ccc24)CCCN(c2cc(C(=O)O)cc(C(F)(F)F)c2)C3=O)cc(C)c1Cl` [I-222, 3-(8-chloro-11-(3-(4-chloro-3,5-dimethylphenoxy)propyl)-1-oxo-7-(1,3,5-trimethyl-1H-pyrazol-4-yl)-4,5-dihydro-1H-[1,4]diazepino[1,2-a]indol-2(3H)-yl)-5-(trifluoromethyl)benzoic acid]: the Ki was less than 50 nM.
